Ki data for 14 compounds are collected here from ChEMBL document CHEMBL1129841, “Peptide based inhibitors of interleukin-8: structural simplification and enhanced potency” (Bioorg Med Chem Lett, 1997).

pKi: −log10 of the molar value. *1 amine or outer side, *2 acyl side, *3 side chain or, on linkers, in order; H or OH if unused. Where a SMILES comes first, the peptide text is derived from it. [ ]: non-standard residue; d: D form. ξ: configuration not given here. 2(aminomethyl)benzoyl = O=C(c1ccccc1CN[*:1])[*:2]; X1 = C[C@@H](CCCC(=O)[*:2])N[*:1]; X2 = C[C@H](CCCN[*:1])C(=O)[*:2]; ξThr(3R) = C[C@@H](O)C(N)C(=O)O; 12Ado = NCCCCCCCCCCCC(=O)O; 3Amb = NCc1cccc(C(=O)O)c1; 4Amb = NCc1ccc(C(=O)O)cc1; Aun = NCCCCCCCCCCC(=O)O; Aoc = NCCCCCCCC(=O)O; Ahx = NCCCCCC(=O)O; ξP = O=C(O)C1CCCN1; Ava = NCCCCC(=O)O; GABA = NCCCC(=O)O

The assay addresses T1, Interleukin-8 (Homo sapiens, UniProt P10145).
T1 sequence (P10145 whole entry): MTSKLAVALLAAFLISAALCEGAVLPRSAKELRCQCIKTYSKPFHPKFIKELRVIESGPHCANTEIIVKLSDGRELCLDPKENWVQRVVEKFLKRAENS
Put plainly: Inhibition of Interleukin-8 (IL-8).
The term pKi denotes the Ki on a negative log10 scale, so that one unit is a factor of ten. Higher therefore signals a small Ki. In turn, `CSCC[C@H](NC(C)=O)C(=O)N[C@@H](Cc1c[nH]c2ccccc12)C(=O)N[C@@H](CC(=O)O)C(=O)N[C@@H](Cc1ccccc1)C(=O)N[C@@H](CC(=O)O)C(=O)N[C@@H](CC(=O)O)C(=O)N[C@@H](CC(C)C)C(=O)N[C@@H](CC(N)=O)C(=O)N[C@@H](Cc1ccccc1)C(=O)NCCCCC(=O)N[C@@H](CCSC)C(=O)N1CCC[C@H]1C(=O)N1CCC[C@H]1C(=O)N[C@@H](C)C(=O)N[C@@H](CC(=O)O)C(=O)N[C@@H](CCC(=O)O)C(=O)N[C@@H](CC(=O)O)C(=O)N[C@@H](Cc1ccc(O)cc1)C(=O)N[C@@H](CO)C(=O)N1CCC[C@H]1C(N)=O` (Ac-MWDFDDLNF[Ava]MPPADEDYSP-NH2) showed a pKi of 4.89.

Ac-MWDFDDGMPPADEDYSP-NH2 had a pKi of 4.51.

On to `CSCC[C@H](NC(C)=O)C(=O)N[C@@H](Cc1c[nH]c2ccccc12)C(=O)N[C@@H](CC(=O)O)C(=O)N[C@@H](Cc1ccccc1)C(=O)N[C@@H](CC(=O)O)C(=O)N[C@@H](CC(=O)O)C(=O)NCCCCCCCCCCCC(=O)N[C@@H](CCSC)C(=O)N1CCC[C@H]1C(=O)N1CCC[C@H]1C(=O)N[C@@H](C)C(=O)N[C@@H](CC(=O)O)C(=O)N[C@@H](CCC(=O)O)C(=O)N[C@@H](CC(=O)O)C(=O)N[C@@H](Cc1ccc(O)cc1)C(=O)N[C@@H](CO)C(=O)N1CCC[C@H]1C(N)=O` (Ac-MWDFDD[12Ado]MPPADEDYSP-NH2), for which the pKi was 5.40.

Regarding `CSCC[C@H](NC(C)=O)C(=O)N[C@@H](Cc1c[nH]c2ccccc12)C(=O)N[C@@H](CC(=O)O)C(=O)N[C@@H](Cc1ccccc1)C(=O)N[C@@H](CC(=O)O)C(=O)N[C@@H](CC(=O)O)C(=O)N[C@@H](CC(C)C)C(=O)N[C@@H](CC(N)=O)C(=O)N[C@@H](Cc1ccccc1)C(=O)NC(C(=O)NCCC[C@@H](C)C(=O)N1CCC[C@H]1C(=O)N1CCC[C@H]1C(=O)N[C@@H](C)C(=O)N[C@@H](CC(=O)O)C(=O)N[C@@H](CCC(=O)O)C(=O)N[C@@H](CC(=O)O)C(=O)N[C@@H](Cc1ccc(O)cc1)C(=O)N[C@@H](CO)C(=O)N1CCC[C@H]1C(N)=O)[C@@H](C)O` (stereo partly drawn) (Ac-MWDFDDLNF[ξThr(3R)][X2]PPADEDYSP-NH2), the pKi was 3.42.

In turn, `CSCC[C@H](NC(C)=O)C(=O)N[C@@H](Cc1c[nH]c2ccccc12)C(=O)N[C@@H](CC(=O)O)C(=O)N[C@@H](Cc1ccccc1)C(=O)N[C@@H](CC(=O)O)C(=O)N[C@@H](CC(=O)O)C(=O)N[C@@H](CC(C)C)C(=O)N[C@@H](CC(N)=O)C(=O)N[C@@H](Cc1ccccc1)C(=O)NCc1ccccc1C(=O)N[C@@H](CCSC)C(=O)N1CCC[C@H]1C(=O)N1CCC[C@H]1C(=O)N[C@@H](C)C(=O)N[C@@H](CC(=O)O)C(=O)N[C@@H](CCC(=O)O)C(=O)N[C@@H](CC(=O)O)C(=O)N[C@@H](Cc1ccc(O)cc1)C(=O)N[C@@H](CO)C(=O)N1CCCC1C(N)=O` (some centres undefined) (Ac-MWDFDDLNF[2(aminomethyl)benzoyl]MPPADEDYS[ξP]-NH2) had a pKi of 5.03.

`CSCC[C@H](NC(C)=O)C(=O)N[C@@H](Cc1c[nH]c2ccccc12)C(=O)N[C@@H](CC(=O)O)C(=O)N[C@@H](Cc1ccccc1)C(=O)N[C@@H](CC(=O)O)C(=O)N[C@@H](CC(=O)O)C(=O)N[C@@H](CC(C)C)C(=O)N[C@@H](CC(N)=O)C(=O)N[C@@H](Cc1ccccc1)C(=O)NCc1cccc(C(=O)N[C@@H](CCSC)C(=O)N2CCC[C@H]2C(=O)N2CCC[C@H]2C(=O)N[C@@H](C)C(=O)N[C@@H](CC(=O)O)C(=O)N[C@@H](CCC(=O)O)C(=O)N[C@@H](CC(=O)O)C(=O)N[C@@H](Cc2ccc(O)cc2)C(=O)N[C@@H](CO)C(=O)N2CCC[C@H]2C(N)=O)c1` (Ac-MWDFDDLNF[3Amb]MPPADEDYSP-NH2) gave a pKi of 5.40.

With `CSCC[C@H](NC(C)=O)C(=O)N[C@@H](Cc1c[nH]c2ccccc12)C(=O)N[C@@H](CC(=O)O)C(=O)N[C@@H](Cc1ccccc1)C(=O)N[C@@H](CC(=O)O)C(=O)N[C@@H](CC(=O)O)C(=O)N[C@@H](CC(C)C)C(=O)N[C@@H](CC(N)=O)C(=O)N[C@@H](Cc1ccccc1)C(=O)N[C@@H](C)CCCC(=O)N[C@@H](CCSC)C(=O)N1CCC[C@H]1C(=O)N1CCC[C@H]1C(=O)N[C@@H](C)C(=O)N[C@@H](CC(=O)O)C(=O)N[C@@H](CCC(=O)O)C(=O)N[C@@H](CC(=O)O)C(=O)N[C@@H](Cc1ccc(O)cc1)C(=O)N[C@@H](CO)C(=O)N1CCC[C@H]1C(N)=O` (Ac-MWDFDDLNF[X1]MPPADEDYSP-NH2), the pKi is 5.00.

As to `CSCC[C@H](NC(C)=O)C(=O)N[C@@H](Cc1c[nH]c2ccccc12)C(=O)N[C@@H](CC(=O)O)C(=O)N[C@@H](Cc1ccccc1)C(=O)N[C@@H](CC(=O)O)C(=O)N[C@@H](CC(=O)O)C(=O)NCCCC(=O)N[C@@H](CCSC)C(=O)N1CCC[C@H]1C(=O)N1CCC[C@H]1C(=O)N[C@@H](C)C(=O)N[C@@H](CC(=O)O)C(=O)N[C@@H](CCC(=O)O)C(=O)N[C@@H](CC(=O)O)C(=O)N[C@@H](Cc1ccc(O)cc1)C(=O)N[C@@H](CO)C(=O)N1CCC[C@H]1C(N)=O` (Ac-MWDFDD[GABA]MPPADEDYSP-NH2), the pKi is 4.85.

`CSCC[C@H](NC(C)=O)C(=O)N[C@@H](Cc1c[nH]c2ccccc12)C(=O)N[C@@H](CC(=O)O)C(=O)N[C@@H](Cc1ccccc1)C(=O)N[C@@H](CC(=O)O)C(=O)N[C@@H](CC(=O)O)C(=O)NCCCCCCCCCCC(=O)N[C@@H](CCSC)C(=O)N1CCC[C@H]1C(=O)N1CCC[C@H]1C(=O)N[C@@H](C)C(=O)N[C@@H](CC(=O)O)C(=O)N[C@@H](CCC(=O)O)C(=O)N[C@@H](CC(=O)O)C(=O)N[C@@H](Cc1ccc(O)cc1)C(=O)N[C@@H](CO)C(=O)N1CCC[C@H]1C(N)=O` (Ac-MWDFDD[Aun]MPPADEDYSP-NH2): the pKi was 5.22.

On to `CSCC[C@H](NC(C)=O)C(=O)N[C@@H](Cc1c[nH]c2ccccc12)C(=O)N[C@@H](CC(=O)O)C(=O)N[C@@H](Cc1ccccc1)C(=O)N[C@@H](CC(=O)O)C(=O)N[C@@H](CC(=O)O)C(=O)NCCCCCC(=O)N[C@@H](CCSC)C(=O)N1CCC[C@H]1C(=O)N1CCC[C@H]1C(=O)N[C@@H](C)C(=O)N[C@@H](CC(=O)O)C(=O)N[C@@H](CCC(=O)O)C(=O)N[C@@H](CC(=O)O)C(=O)N[C@@H](Cc1ccc(O)cc1)C(=O)N[C@@H](CO)C(=O)N1CCC[C@H]1C(N)=O` (Ac-MWDFDD[Ahx]MPPADEDYSP-NH2), for which the negative logarithm of the Ki (pKi) is 5.15.

For `CSCC[C@H](NC(C)=O)C(=O)N[C@@H](Cc1c[nH]c2ccccc12)C(=O)N[C@@H](CC(=O)O)C(=O)N[C@@H](Cc1ccccc1)C(=O)N[C@@H](CC(=O)O)C(=O)N[C@@H](CC(=O)O)C(=O)N[C@@H](CC(C)C)C(=O)N[C@@H](CC(N)=O)C(=O)N[C@@H](Cc1ccccc1)C(=O)NC(C(=O)NCCCCC(=O)N1CCC[C@H]1C(=O)N1CCC[C@H]1C(=O)N[C@@H](C)C(=O)N[C@@H](CC(=O)O)C(=O)N[C@@H](CCC(=O)O)C(=O)N[C@@H](CC(=O)O)C(=O)N[C@@H](Cc1ccc(O)cc1)C(=O)N[C@@H](CO)C(=O)N1CCC[C@H]1C(N)=O)[C@@H](C)O` (stereo partly drawn) (Ac-MWDFDDLNF[ξThr(3R)][Ava]PPADEDYSP-NH2), the pKi is 3.97.

`CSCC[C@H](NC(C)=O)C(=O)N[C@@H](Cc1c[nH]c2ccccc12)C(=O)N[C@@H](CC(=O)O)C(=O)N[C@@H](Cc1ccccc1)C(=O)N[C@@H](CC(=O)O)C(=O)N[C@@H](CC(=O)O)C(=O)N[C@@H](CC(C)C)C(=O)N[C@@H](CC(N)=O)C(=O)N[C@@H](Cc1ccccc1)C(=O)NCc1ccc(C(=O)N[C@@H](CCSC)C(=O)N2CCC[C@H]2C(=O)N2CCC[C@H]2C(=O)N[C@@H](C)C(=O)N[C@@H](CC(=O)O)C(=O)N[C@@H](CCC(=O)O)C(=O)N[C@@H](CC(=O)O)C(=O)N[C@@H](Cc2ccc(O)cc2)C(=O)N[C@@H](CO)C(=O)N2CCC[C@H]2C(N)=O)cc1` (Ac-MWDFDDLNF[4Amb]MPPADEDYSP-NH2) gave a pKi of 5.64.

The compound Ac-MWDFDDLNFTGMPPADEDYSP-NH2 had a pKi of 4.89.

`CSCC[C@H](NC(C)=O)C(=O)N[C@@H](Cc1c[nH]c2ccccc12)C(=O)N[C@@H](CC(=O)O)C(=O)N[C@@H](Cc1ccccc1)C(=O)N[C@@H](CC(=O)O)C(=O)N[C@@H](CC(=O)O)C(=O)NCCCCCCCC(=O)N[C@@H](CCSC)C(=O)N1CCC[C@H]1C(=O)N1CCC[C@H]1C(=O)N[C@@H](C)C(=O)N[C@@H](CC(=O)O)C(=O)N[C@@H](CCC(=O)O)C(=O)N[C@@H](CC(=O)O)C(=O)N[C@@H](Cc1ccc(O)cc1)C(=O)N[C@@H](CO)C(=O)N1CCC[C@H]1C(N)=O` (Ac-MWDFDD[Aoc]MPPADEDYSP-NH2) had a pKi of 4.92.
